Where “and” joins values, the source holds several entries; their conditions need not be identical. Identical values can stand only once. ± gives the expanded uncertainty stated by the source.
Tests used:
[1] = Crystal; for vapor or sublimation pressure: Calculated from knudsen effusion weight loss; for Normal melting temperature: DTA
[2] = Molar enthalpy of transition or fusion; conditions: Crystal; DSC

CC(=O)Oc1cccc(C(=O)O)c1 [3-acetoxybenzoic acid]
[1]
Conditions	vapor or sublimation pressure
344.16 K	0.000129 ± 2.1e-05 kPa and 0.000124 ± 2e-05 kPa and 0.000123 ± 2e-05 kPa
346.15 K	0.000158 ± 2.1e-05 kPa and 0.000163 ± 2.1e-05 kPa and 0.000157 ± 2.1e-05 kPa
348.2 K	0.000198 ± 2.1e-05 kPa and 0.000199 ± 2.1e-05 kPa and 0.000205 ± 2.1e-05 kPa
350.13 K	0.000251 ± 2.2e-05 kPa and 0.00025 ± 2.2e-05 kPa and 0.000257 ± 2.2e-05 kPa
353.17 K	0.000355 ± 2.4e-05 kPa and 0.000357 ± 2.4e-05 kPa and 0.00037 ± 2.4e-05 kPa
356.21 K	0.000497 ± 2.7e-05 kPa and 0.000499 ± 2.7e-05 kPa and 0.00051 ± 2.7e-05 kPa
358.16 K	0.000631 ± 3e-05 kPa and 0.000652 ± 3.1e-05 kPa
360.17 K	0.000813 ± 3.5e-05 kPa and 0.00081 ± 3.5e-05 kPa
362.16 K	0.000967 ± 5.3e-05 kPa and 0.000966 ± 5.3e-05 kPa and 0.001004 ± 8.2e-05 kPa

Conditions	Molar enthalpy of transition or fusion [kcal/mol]	Normal melting temperature [°C]
[1]	–	131.61 ± 0.39
[2]	6.28 ± 0.146	–

CC(=O)Oc1ccccc1C(=O)O [2-acetoxybenzoic acid]
[1]
Conditions	vapor or sublimation pressure
341.11 K	0.00012 ± 2e-05 kPa and 0.000119 ± 2e-05 kPa
343.24 K	0.000147 ± 2.1e-05 kPa and 0.000158 ± 2.1e-05 kPa
345.28 K	0.000194 ± 2.1e-05 kPa and 0.000203 ± 2.1e-05 kPa
347.1 K	0.00023 ± 2.2e-05 kPa and 0.000238 ± 2.2e-05 kPa
349.24 K	0.00029 ± 2.2e-05 kPa and 0.000305 ± 2.3e-05 kPa
351.27 K	0.000378 ± 2.4e-05 kPa and 0.000387 ± 2.4e-05 kPa
353.1 K	0.000478 ± 2.6e-05 kPa and 0.000471 ± 2.6e-05 kPa
355.28 K	0.000599 ± 6.4e-05 kPa and 0.000643 ± 6.4e-05 kPa
357.27 K	0.000744 ± 8.4e-05 kPa and 0.000796 ± 8.5e-05 kPa
359.23 K	0.00089 ± 0.00011 kPa and 0.000966 ± 0.00011 kPa
361.11 K	0.001165 ± 9.3e-05 kPa

Conditions	Molar enthalpy of transition or fusion [kcal/mol]	Normal melting temperature [°C]
[1]	–	134.23 ± 0.39
[2]	8.09 ± 0.174	–

CC(=O)Nc1ccccc1C(=O)O [2-acetamidobenzoic acid]
[1]
Conditions	vapor or sublimation pressure
367.17 K	8.3e-05 ± 2e-05 kPa
369.28 K	0.000109 ± 2e-05 kPa and 0.000106 ± 2e-05 kPa and 0.000108 ± 2e-05 kPa
371.16 K	0.000128 ± 2.1e-05 kPa
373.16 K	0.00016 ± 2.1e-05 kPa and 0.000163 ± 2.1e-05 kPa
375.26 K	0.000207 ± 2.1e-05 kPa and 0.00021 ± 2.1e-05 kPa
377.16 K	0.000248 ± 2.2e-05 kPa and 0.000255 ± 2.2e-05 kPa and 0.000258 ± 2.2e-05 kPa
379.19 K	0.000305 ± 2.3e-05 kPa and 0.000303 ± 2.3e-05 kPa and 0.000308 ± 2.3e-05 kPa
381.29 K	0.000385 ± 2.4e-05 kPa and 0.000373 ± 2.4e-05 kPa and 0.000378 ± 2.4e-05 kPa
383.16 K	0.000438 ± 2.5e-05 kPa
385.15 K	0.000577 ± 2.9e-05 kPa and 0.000561 ± 2.8e-05 kPa and 0.000574 ± 2.9e-05 kPa
387.26 K	0.000697 ± 8.4e-05 kPa and 0.000711 ± 8.4e-05 kPa and 0.00078 ± 8.5e-05 kPa
389.15 K	0.000829 ± 3.5e-05 kPa and 0.00084 ± 3.6e-05 kPa

Conditions	Molar enthalpy of transition or fusion [kcal/mol]	Normal melting temperature [°C]
[1]	–	181.96 ± 0.41
[2]	7.01 ± 0.155	–

CC(=O)Nc1cccc(C(=O)O)c1 [3-(acetylamino)benzoic acid]
[1]
Conditions	vapor or sublimation pressure
423.22 K	0.000156 ± 2.1e-05 kPa
425.28 K	0.000193 ± 2.1e-05 kPa and 0.000189 ± 2.1e-05 kPa
427.09 K	0.000223 ± 2.2e-05 kPa and 0.000219 ± 2.1e-05 kPa
429.23 K	0.000279 ± 2.2e-05 kPa and 0.000283 ± 2.2e-05 kPa
431.28 K	0.000336 ± 2.3e-05 kPa and 0.000341 ± 2.3e-05 kPa
433.24 K	0.00041 ± 2.5e-05 kPa and 0.000419 ± 2.5e-05 kPa
435.1 K	0.000495 ± 2.7e-05 kPa and 0.000496 ± 2.7e-05 kPa
437.29 K	0.000619 ± 3e-05 kPa and 0.000621 ± 3e-05 kPa
439.23 K	0.000751 ± 3.3e-05 kPa and 0.000744 ± 3.3e-05 kPa
441.1 K	0.000886 ± 5.1e-05 kPa and 0.000907 ± 5.1e-05 kPa

Conditions	Molar enthalpy of transition or fusion [kcal/mol]	Normal melting temperature [°C]
[1]	–	249.04 ± 0.39
[2]	10.1 ± 0.234	–

Reference: the NIST ThermoML archive (doi:10.1016/j.jct.2015.02.010)
